Reference: patent US8399214B2 (Evonik Degussa GmbH, priority 2005, dated 2013)

Test system: OM101 (ΔmetB,ΔmetF)
Experiment: Lawn growth on methionine-free agar plates with liquid or gaseous DMDS
Format: cell-based, C. glutamicum
Settings: for killing zone: 48-60 hours
Description: Control plates received the lawn of cells, but no DMDS. The plates were placed together in a sealed polypropylene plastic box that was slightly bigger than the stack of plates and incubated at 30° C. for 48-60 hours. […] Normally, when a required nutrient is placed in the middle of a lawn that is auxotrophic for the nutrient, a gradient of growth is seen, with the most rapid growth occurring closest to the nutrient.
The plates were incubated at 30° C. enclosed in an airtight plastic box. […] This could be accomplished by evaporating or boiling DMDS and pumping the DMDS vapor into the fermentation vessel, or by bubbling air or oxygen through liquid DMDS on its route to the fermentation vessel.

Structure (SMILES): CSSC [DMDS, dimethyl disulfide]
- growth of OM101 lawn (50 μl liquid DMDS in polypropylene cap, reaches cells only through gaseous state, 30° C., two days): complete bacterial lawn
- killing zone (50 μl liquid DMDS placed into a well in the agar, 30° C.): no killing zone
- killing zone (50 μl liquid DMDS spotted directly on the lawn, 30° C.): approximately 30 mm
- toxicity of DMDS in the gas state to OM101 (gas state): not toxic
